Like-named read-outs stand apart in the source and are kept apart here.

Consider 5 compounds from US20060270727A1, “Small molecule therapeutics and uses therefor” (priority 2005, published 2006).

The subject of assay [1] is sticky DNA in plasmid pRW4886, two tracts of (GAA)176. Nature of the assay: Sticky DNA disruption, EcoNI digestion and agarose gel. In kind it is biochemical. The settings on record: 37° C., 1 hr. The protocol: Influence of Polyamides on Sticky DNA Conformation. Plasmid pRW4886, which contains two tracts of (GAA)176 (SEQ ID NO: ______) in a direct repeat orientation (Vetcher et al., 2002b, Id)., and forms sticky DNA, was treated with polyamides at concentrations of 0-50 μM at 37° C. for 1 hr. Restriction digestion with EcoNI following the polyamide incubation enabled visualization of the presence or absence of an EcoNI cleaved sticky DNA band that runs with decreased mobility compared to the linearized plasmid on 1% agarose gels. Quantitation was by densitometric analysis using Fluor Chem version 3.04 (Alpha Innotech Corp).
The capacity of sequence-specific polyamides to disrupt the intramolecular sticky DNA structure formed by GAA repeat tracts was investigated. Plasmids harboring the sticky DNA structure are visualized by gel electrophoresis after restriction endonuclease cleavage, by methods well known in the art. […] Plasmid pRW4886, which contains two tracts of (GAA)176 (SEQ ID NO: ______) in a direct repeat orientation (Vetcher et al., 2002b, Id.), was incubated with each of polyamides FA1, FA2, FA3 and FA4 at concentrations ranging from 0-50 μM. The polyamide-bound DNA was then digested with EcoNI and subjected to electrophoresis on 1% agarose gels to determine the amount of EcoNI cleaved sticky DNA retarded band present. Incubation of pRW4886 DNA with FA3 shifted the equilibrium from a maximum amount of sticky DNA to a complete loss of the EcoNI cleaved sticky DNA retarded band at a concentration of 50 nM. […] For FA1, a 1 μM concentration was needed to dissociate the DNA-DNA structure-forming region. […] Since sticky DNA inhibits transcription (Ohshima et al., Id.; Sakamoto et al., 2001, J. Biol. Chem. 276:27171-27177), and since the polyamides destabilize this conformation by shifting the structural equilibrium to duplex B-type DNA, it is highly likely that the increases in frataxin mRNA observed with polyamide FA1 are due to this structural transition.

The test system of assay [2] is mismatch DNA sequence 5′-GGAGGAGGTGGAGGAGGA-3′ from the erbB2 (Her2-neu) promoter. Nature of the assay: DNase I footprinting on mismatch DNA. In kind it is binding, human. To be noted: polyamide concentrations up to 100 nM. The protocol: Two additional molecules, FA5 [(ImPyβ)4ImβDp] and FA6 [(ImPyβ)5ImβDp], were synthesized in order to target longer regions of GAA repeats in duplex DNA; i.e., (AAG)5 (SEQ ID NO: ______) and (AAG)6 (SEQ ID NO: ______) respectively. […] As another test for sequence specificity, footprinting experiments with FA1 and FA3 and a radiolabeled DNA fragment containing a mismatch DNA sequence 5′-GGAGGAGGTGGAGGAGGA-3′ (SEQ ID NO: ______) were performed.
The first oligonucleotide shown was radiolabeled as above to generate a PCR product labeled on the GAA strand. A 150 bp PCR product containing a (GGA•TCC)6 mismatch sequence was derived from the erbB2 (Her2-neu) promoter in human genomic DNA with the following oligonucleotides: […]

Assay [3] deals with frataxin mRNA in GM15850 FRDA lymphoid cell line. Nature of the assay: qRT-PCR of frataxin mRNA, FRDA cell line. In kind it is cell-based, human. To be noted: GM15850 FRDA cell line; 7 days incubation. The text has this:
GAA Specific Polyamides Up Regulate Frataxin mRNA and Protein. To assess whether polyamides alleviate transcription inhibition caused by expanded GAA repeats in the frataxin gene, quantitative real time/reverse transcriptase PCR (qRT-PCR) was used to monitor frataxin mRNA levels in the GM15850 and GM15851 lymphoid cell lines described above; levels of glyceraldehyde 3-phosphate dehydrogenase (GAPDH) mRNA were used as an internal control for each RNA sample; see Example 8. No differences in GAPDH were found between the two cell lines. […] No changes in frataxin mRNA levels were observed on shorter incubation times.
Cell Culture. Epstein Barr virus transformed lymphoblast cell lines GM15850 from a FRDA patient (alleles with 650 and 1030 GAA repeats in the frataxin gene, from the Coriell Cell Repository, Camden, N.J.), and GM15851 from an unaffected sibling (normal range of repeats), were propagated in RMPI 1640 medium with 2 mM L-glutamine and 15% fetal bovine serum at 37° C. in 5% CO2. Cell growth and morphology were monitored by phase contrast microscopy and viability by trypan blue exclusion and an ATP assay (ApoSENSOR™, BioVision). Polyamides were added directly to the culture medium in PBS. Nuclear localization of the polyamides was verified by deconvolution microscopy, by methods well known in the art (see e.g., Dudouet et al., Chem. Biol., 2003, 10: 859-867).
Real-Time Quantitative RT-PCR. Real-time quantitative RT-PCR (qRT-PCR) analysis was performed essentially as previously described (Chuma, et al., 2003, Hepatology 37:198-207), using the following primers for the frataxin gene: […]
RNA was standardized by quantification of GAPDH mRNA (Pattyn et al., 2003, Nucleic Acids Res. 31:122-123), and all values are expressed relative to GAPDH. qRT-PCR was performed using iScript One-Step RT-PCR kit with SYBR green (Biorad). Statistical analysis was performed on three independent quantitative RT-PCR experiments for each RNA sample.
On the technique in general: In qPCR the cycle at which signal appears reflects the starting amount.

For assay [4], the target named is GAA·TTC duplex repeats in the frataxin gene; radiolabeled PCR product containing a (GAA)6 sequence. As to the kind of experiment: Quantitative DNase I footprinting on (GAA)6 DNA. In kind it is binding. To be noted: for sequence specificity: DNase I footprinting; for binding affinity for duplex GAA•TTC repeat DNA, in words: compared with FA1. The text has this:
Targeting GAA Repeat DNA with Polyamides. β-Alanine linked polyamides FA1-FA6 were synthesized (see Example 6) with sequence, theoretical DNA binding site, theoretical DNA binding site SEQ ID NO: ______) and binding affinity as shown in Table 1. […] Those of skill in the art will recognize that this value may be an underestimation of the affinity of this molecule for GAA repeat DNA since the KD measurements are limited by a minimum DNA concentration of ˜2 pM in the binding reaction. Radiolabeling of nucleic acid incorporated γ^32P ATP and polynucleotide kinase used standard procedures.
Polyamlde Synthesis and Characterization. Polyamides were synthesized by solid phase methods (Urbach & Dervan, Id.; Baird & Dervan, 1996, J. Am. Chem. Soc. 118:6141-6146) and their identity and purity verified by MALDI-TOF MS and analytical HPLC, using methods well known in the art. Fluorescent conjugates were prepared by coupling BODIPY (Molecular Probes) to the carboxyl-terminus (Best et al., 2003, Proc. Natl. Acad. Sci. U.S.A. 100:12063-12068). Binding affinities for match and mismatch sites were determined by quantitative DNase I footprinting (Trauger & Dervan, Id). A plasmid harboring six GAA repeats was constructed by cloning the oligonucleotide
in the pCR2.1 TOPO vector (Invitrogen, Calif.), and a 117 bp singly end-labeled PCR product was generated from this plasmid with the following oligonucleotides:
where the second oligonucleotide was labeled with γ-^32P ATP and polynucleotide kinase, using standard procedures, to generate a PCR product labeled on the GAA strand. A 204 bp singly end-labeled PCR product was derived from plasmid pMP142 DNA, containing 33 GAA repeats (Ohshima et al., Id.), with following oligonucleotides: […]

The mark [5] stands for this setting: quantitative DNase I footprinting, mean and standard deviation, minimum of two determinations, read-out: Binding affinity (KD).

In the case of `CN(C)CCCNC(=O)CCNC(=O)c1nc(NC(=O)CCNC(=O)c2cc(NC(=O)c3nc(NC(=O)CCNC(=O)c4cc(NC(=O)c5nc(NC(=O)CCNC(=O)c6cc(NC(=O)c7nccn7C)cn6C)cn5C)cn4C)cn3C)cn2C)cn1C` [FA3, (ImPyβ)3ImβDp], the “concentration for complete loss of the EcoNI cleaved sticky DNA retarded band” value in assay [1] came to 50 nM. For the same compound, the “binding to mismatch DNA sequence” value in assay [2] is “Neither FA1 nor FA3 bound this DNA sequence”. In addition, the “effect on frataxin mRNA levels, in words” value in assay [3] is reported as “did not increase frataxin mRNA levels”. The Kd in assay [4] (footprinting at low (~2 pM) DNA concentrations, may underestimate affinity, read-out: KD) is around 3 pM; in assay [4] (setting [5]), 3 ± 1 pM.
On to `CN(C)CCCNC(=O)CCNC(=O)c1cc(NC(=O)CCNC(=O)c2nc(NC(=O)c3nc(NC(=O)CCNC(=O)c4cc(NC(=O)c5nc(NC(=O)CCNC(=O)c6cc(NC(=O)c7nccn7C)cn6C)cn5C)cn4C)cn3C)cn2C)cn1C` [FA4, (ImPyβ)2ImImβPyβDp], for which the “concentration needed to affect or dissociate sticky DNA” value in assay [1] was at least 5 µM. Also, the Kd in assay [4] ((GAA)6 DNA, values in text, read-out: apparent dissociation constant (KD)) was determined as 2000 pM. Moreover, the “binding affinity, times less than FA3” value in assay [4] (FA4 vs FA3) is given as around 1000 times. In addition, the “reduction of binding affinity vs match polyamide” value in assay [4] (mismatch vs match polyamide (FA2 vs FA1, FA4 vs FA3)) was “three orders of magnitude”.
On to `CN(C)CCCNC(=O)CCNC(=O)c1nc(NC(=O)CCNC(=O)c2cc(NC(=O)c3nc(NC(=O)CCNC(=O)c4cc(NC(=O)c5nc(NC(=O)CCNC(=O)c6cc(NC(=O)c7nc(NC(=O)CCNC(=O)c8cc(NC(=O)c9nccn9C)cn8C)cn7C)cn6C)cn5C)cn4C)cn3C)cn2C)cn1C` [FA5, (ImPyβ)4ImβDp], for which, in assay [4], the sequence specificity entry is recorded as “less specific than FA1 or FA3” and the “binding affinity for duplex GAA•TTC repeat DNA, in words” value is “comparable to that of FA1”. Besides, in assay [4] (setting [5]), the Kd came to 200 ± 20 pM.
The like results for `CN(C)CCCNC(=O)CCNC(=O)c1nc(NC(=O)CCNC(=O)c2cc(NC(=O)c3nc(NC(=O)CCNC(=O)c4cc(NC(=O)c5nc(NC(=O)CCNC(=O)c6cc(NC(=O)c7nc(NC(=O)CCNC(=O)c8cc(NC(=O)c9nc(NC(=O)CCNC(=O)c%10cc(NC(=O)c%11nccn%11C)cn%10C)cn9C)cn8C)cn7C)cn6C)cn5C)cn4C)cn3C)cn2C)cn1C` [FA6, (ImPyβ)5ImβDp] were, in that order, “less specific than FA1 or FA3”, “comparable to that of FA1” and 220 ± 80 pM.
Take `CN(C)CCCNC(=O)CCNC(=O)c1nc(NC(=O)CCNC(=O)c2cc(NC(=O)c3nccn3C)cn2C)cn1C` [ImPyβImβDp]: the binding affinity entry in assay [4] (six bp sequence 5′-AAGAAG-3′) is recorded as “low μM”.
